Measured values as given in patent US9365588B2, “Benzoxazines as modulators of ion channels” (Vertex Pharmaceuticals Incorporated, priority 2011, dated 2016).

Target: human NaV 1.7 (Homo sapiens, UniProt Q15858)
Test: E-VIPR optical membrane potential assay with electrical stimulation
Assay type: cell-based
Settings: sodium channel inhibition; read-out: Binned Activity Data (IC50)
Procedure, shortened: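 Membrane-potential read-out: background-subtracted 460 nm/580 nm ratio during a 9 s current-controlled stimulus, 400 Hz scan. Before stimulation, NaV1.7-HEK cells carried coumarin/oxonol dye and compound (final DMSO 0.625%) for 20–35 min at room temperature; tetracaine 125 μM served as positive control.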

Chain of human NaV 1.7 (Q15858 whole entry): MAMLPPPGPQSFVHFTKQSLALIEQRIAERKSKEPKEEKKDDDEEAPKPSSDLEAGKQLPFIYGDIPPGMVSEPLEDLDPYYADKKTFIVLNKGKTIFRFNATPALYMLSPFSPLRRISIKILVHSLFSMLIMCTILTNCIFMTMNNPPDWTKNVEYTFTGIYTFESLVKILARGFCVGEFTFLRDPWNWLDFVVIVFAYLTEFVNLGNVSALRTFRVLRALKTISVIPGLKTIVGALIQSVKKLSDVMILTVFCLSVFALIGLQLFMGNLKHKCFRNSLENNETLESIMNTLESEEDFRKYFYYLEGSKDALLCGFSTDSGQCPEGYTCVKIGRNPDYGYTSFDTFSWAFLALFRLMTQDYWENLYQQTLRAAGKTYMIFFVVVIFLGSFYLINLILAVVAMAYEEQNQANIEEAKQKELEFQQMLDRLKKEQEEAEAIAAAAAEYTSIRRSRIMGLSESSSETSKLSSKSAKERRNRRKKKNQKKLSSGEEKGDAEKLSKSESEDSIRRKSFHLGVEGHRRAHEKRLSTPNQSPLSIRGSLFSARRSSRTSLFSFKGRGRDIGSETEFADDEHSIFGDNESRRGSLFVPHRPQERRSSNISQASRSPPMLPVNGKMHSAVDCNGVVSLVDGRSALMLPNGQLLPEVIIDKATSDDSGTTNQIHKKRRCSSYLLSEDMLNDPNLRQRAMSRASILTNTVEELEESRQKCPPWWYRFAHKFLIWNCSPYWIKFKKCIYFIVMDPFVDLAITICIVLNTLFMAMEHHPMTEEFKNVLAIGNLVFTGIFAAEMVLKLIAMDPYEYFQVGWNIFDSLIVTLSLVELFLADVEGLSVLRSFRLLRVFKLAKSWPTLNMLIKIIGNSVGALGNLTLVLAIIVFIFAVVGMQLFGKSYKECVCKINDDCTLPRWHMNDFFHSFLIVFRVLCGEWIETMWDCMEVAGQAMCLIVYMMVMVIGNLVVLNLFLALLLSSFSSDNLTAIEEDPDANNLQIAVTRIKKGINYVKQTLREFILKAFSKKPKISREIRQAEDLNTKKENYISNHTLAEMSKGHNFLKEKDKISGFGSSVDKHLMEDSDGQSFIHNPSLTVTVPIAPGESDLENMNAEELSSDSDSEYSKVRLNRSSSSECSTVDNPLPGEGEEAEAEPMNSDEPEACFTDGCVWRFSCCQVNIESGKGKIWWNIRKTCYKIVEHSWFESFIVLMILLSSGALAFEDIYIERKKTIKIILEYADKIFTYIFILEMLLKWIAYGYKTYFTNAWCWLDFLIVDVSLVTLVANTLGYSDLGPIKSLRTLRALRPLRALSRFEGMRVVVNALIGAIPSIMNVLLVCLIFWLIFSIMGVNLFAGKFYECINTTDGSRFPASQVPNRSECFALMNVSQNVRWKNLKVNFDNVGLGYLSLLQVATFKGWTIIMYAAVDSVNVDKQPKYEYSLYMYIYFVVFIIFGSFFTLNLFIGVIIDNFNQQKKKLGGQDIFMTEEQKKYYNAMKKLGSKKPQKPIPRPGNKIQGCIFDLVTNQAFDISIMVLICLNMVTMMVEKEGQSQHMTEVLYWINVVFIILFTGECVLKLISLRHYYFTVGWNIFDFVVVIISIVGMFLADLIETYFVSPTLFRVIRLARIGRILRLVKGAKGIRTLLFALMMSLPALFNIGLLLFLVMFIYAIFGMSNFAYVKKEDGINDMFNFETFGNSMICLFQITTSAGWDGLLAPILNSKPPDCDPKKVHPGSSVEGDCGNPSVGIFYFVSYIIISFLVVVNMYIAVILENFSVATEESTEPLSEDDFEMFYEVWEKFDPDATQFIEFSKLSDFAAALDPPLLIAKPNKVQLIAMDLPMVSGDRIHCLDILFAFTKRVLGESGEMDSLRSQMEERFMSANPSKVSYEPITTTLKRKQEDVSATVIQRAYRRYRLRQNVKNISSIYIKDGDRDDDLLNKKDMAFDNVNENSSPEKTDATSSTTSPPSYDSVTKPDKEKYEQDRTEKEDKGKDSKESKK

SMILES | IC50 [nM]
CC(c1ccc(C(=O)N2CCC3(CC2)Oc2ccccc2-n2c(C#N)ccc23)cc1)S(C)(=O)=O (stereo not drawn) [Compound 781] | 2000 to 5000
N#Cc1ccc2n1-c1ccccc1OC21CCN(C(=O)c2ccc(OC[C@H](O)CO)cc2)CC1 [Compound 789] | > 5000
O=C(c1ccc(S(=O)(=O)CCO)cc1)N1CCC2(CC1)Oc1ccccc1-n1c(C(F)(F)F)ccc12 [Compound 794] | > 5000
CC(C)S(=O)(=O)c1ccc(C(=O)N2CCC3(CC2)Oc2cc(F)ccc2-n2c(C(F)(F)F)ccc23)cc1 [Compound 804] | > 5000
N#Cc1ccc2n1-c1ccccc1OC21CCN(C(=O)c2ccc(F)cc2Cl)CC1 [Compound 807] | > 5000
Cn1ncc2c1-c1ccccc1OC21CCN(C(=O)c2ccc(OC(F)F)cc2)CC1 [Compound 811] | > 5000
Cc1c(C(=O)N2CCC3(CC2)Oc2ccccc2-c2c3cnn2C)cnn1-c1ccc(F)cc1 [Compound 814] | > 5000
COCc1ccc2c(c1)OC1(CCN(C(=O)c3ccc(S(=O)(=O)C(C)C)cc3)CC1)c1ccc(C#N)n1-2 [Compound 832] | > 5000
Cc1cc(C(=O)N2CCC3(CC2)Oc2ccccc2-c2c3cnn2C)ccc1OC(F)(F)F [Compound 838] | 2000 to 5000
O=C(c1ccc(S(=O)(=O)C2CCOC2)cc1)N1CCC2(CC1)Oc1ccccc1-n1c(C(F)(F)F)ccc12 (stereo not drawn) [Compound 840] | ≤ 2000
Cn1ncc2c1-c1ccccc1OC21CCN(C(=O)c2cccc3c2OCCC3)CC1 [Compound 841] | ≤ 2000
Cn1ncc2c1-c1ccccc1OC21CCN(C(=O)c2ccc3nc(Cl)sc3c2)CC1 [Compound 842] | > 5000
Cn1cc2c(n1)-c1ccccc1OC21CCN(C(=O)c2ccc3nc(Cl)sc3c2)CC1 [Compound 843] | 2000 to 5000
CC(C)(C)NS(=O)(=O)c1ccc(C(=O)N2CCC3(CC2)Oc2ccccc2-n2c(C#N)ccc23)cc1 [Compound 844] | ≤ 2000
COc1ccccc1C(=O)N1CCC2(CC1)Oc1cc(F)ccc1-c1c2cnn1C [Compound 845] | ≤ 2000
O=C(c1ccc(OCCO)cc1)N1CCC2(CC1)Oc1ccccc1-n1c(C(F)(F)F)ccc12 [Compound 846] | ≤ 2000
COc1cc(C(=O)N2CCC3(CC2)Oc2ccccc2-n2cccc23)ccc1OCC(C)(C)OC [Compound 847] | ≤ 2000
CCc1ccc(C(=O)N2CCC3(CC2)Oc2cc(CO)ccc2-n2cccc23)cc1OC [Compound 848] | ≤ 2000
CC(C)(C)c1ccc(C(=O)N2CCC3(CC2)Oc2ccccc2-n2c(C#N)ccc23)cn1 [Compound 849] | > 5000
COc1cc(C(=O)N2CCC3(CC2)Oc2cc(Cl)ccc2-n2cccc23)ccc1OCCS(C)(=O)=O [Compound 851] | ≤ 2000

SMILES | IC50 [nM]
Cc1cc2n(c1)-c1ccccc1OC21CCN(C(=O)c2ccc(OC(C)C)c(C)c2)CC1 [Compound 852] | ≤ 2000
COc1c(CO)cccc1C(=O)N1CCC2(CC1)Oc1ccccc1-c1c2cnn1C [Compound 853] | ≤ 2000
N#Cc1ccc2n1-c1ccccc1OC21CCN(C(=O)c2ccc(OC3CNC3)cc2)CC1 [Compound 854] | 2000 to 5000
COc1cc(C(=O)N2CCC3(CC2)Oc2cc(F)ccc2-n2cccc23)ccc1C(C)(C)C [Compound 855] | ≤ 2000
Cn1ncc2c1-c1ccccc1OC21CCN(C(=O)c2ccc(O)c(F)c2)CC1 [Compound 856] | ≤ 2000
COc1ccc(C(=O)N2CCC3(CC2)Oc2cc(Cl)ccc2-n2cccc23)cc1C(F)(F)F [Compound 857] | ≤ 2000
COc1ccc(Cl)cc1C(=O)N1CCC2(CC1)Oc1cc(Cl)ccc1-n1cccc12 [Compound 858] | ≤ 2000
CCS(=O)(=O)c1ccc(C(=O)N2CCC3(CC2)Oc2ccccc2-c2c3cnn2C)cc1 [Compound 859] | 2000 to 5000
Cn1ncc2c1-c1ccccc1OC21CCN(C(=O)c2cccc3c2CC(C)(C)O3)CC1 [Compound 860] | ≤ 2000
Cn1ncc2c1-c1ccccc1OC21CCN(C(=O)c2ccc3c(ccn3C)c2)CC1 [Compound 861] | ≤ 2000
Cn1ncc2c1-c1ccccc1OC21CCN(C(=O)c2cccnc2Oc2ccc(F)cc2)CC1 [Compound 862] | ≤ 2000
CCc1ccc(C(=O)N2CCC3(CC2)Oc2cc(C(=O)N(C)C)ccc2-n2cccc23)cc1OC [Compound 863] | ≤ 2000
N#Cc1ccc2n1-c1ccccc1OC21CCN(C(=O)c2ccc(C3(O)COC3)cc2)CC1 [Compound 864] | ≤ 2000
CCOc1ccc(C(=O)N2CCC3(CC2)Oc2ccccc2-c2c3cnn2C)cc1OC [Compound 866] | ≤ 2000
Cn1ncc2c1-c1ccccc1OC21CCN(C(=O)c2cccc3c2cnn3C)CC1 [Compound 867] | ≤ 2000
Cc1cccc(C(=O)N2CCC3(CC2)Oc2ccccc2-c2c3cnn2C)c1O [Compound 868] | 2000 to 5000
CC(C)(C)S(=O)(=O)c1ccc(C(=O)N2CCC3(CC2)Oc2ccccc2-n2c(C#N)ccc23)cc1 [Compound 869] | ≤ 2000
O=C(c1cccc(Cl)c1)N1CCC2(CC1)Oc1cc(Cl)ccc1-n1cccc12 [Compound 870] | ≤ 2000
COc1ccc(C(=O)N2CCC3(CC2)Oc2ccccc2-n2c(C(F)(F)F)ccc23)cc1Cl [Compound 871] | ≤ 2000
COc1ccc(C(=O)N2CCC3(CC2)Oc2ccccc2-n2c(C(F)(F)F)ccc23)nc1C [Compound 872] | ≤ 2000

Further lines, results first:

IC50 [nM] | SMILES
≤ 2000 | COc1ccc(C(=O)N2CCC3(CC2)Oc2ccccc2-c2c3cnn2C)c(C)c1 [Compound 774]
≤ 2000 | O=C(c1ccc(OC2COC2)c(F)c1)N1CCC2(CC1)Oc1cc(Cl)ccc1-n1cccc12 [Compound 777]
≤ 2000 | O=C(c1ccc(S(=O)(=O)C(F)F)cc1)N1CCC2(CC1)Oc1ccccc1-n1c(C(F)(F)F)ccc12 [Compound 778]
≤ 2000 | Cc1cc(S(C)(=O)=O)ccc1C(=O)N1CCC2(CC1)Oc1ccccc1-n1c(C#N)ccc12 [Compound 784]
≤ 2000 | COc1cc(C(=O)N2CCC3(CC2)Oc2ccccc2-c2c3cnn2CC(F)(F)F)ccc1OCCC(C)C [Compound 785]
≤ 2000 | CC(C)Oc1ccc(C(=O)N2CCC3(CC2)Oc2ccccc2-c2c3cnn2C)c(OC(C)C)c1 [Compound 788]
≤ 2000 | O=C(c1ccccc1O)N1CCC2(CC1)Oc1cc(Cl)ccc1-n1cccc12 [Compound 790]
≤ 2000 | COCCOc1ccc(C(=O)N2CCC3(CC2)Oc2ccccc2-n2cccc23)cc1OC [Compound 791]
≤ 2000 | Cc1cc(C(=O)N2CCC3(CC2)Oc2cc(Cl)ccc2-n2cccc23)ccc1C(C)(C)O [Compound 792]
≤ 2000 | Cc1ccc(C(=O)N2CCC3(CC2)Oc2ccccc2-n2c3ccc2S(C)(=O)=O)cc1Cl [Compound 793]
≤ 2000 | Cc1cc(C(C)(C)O)ccc1C(=O)N1CCC2(CC1)Oc1ccc(F)cc1-c1nn(C)cc12 [Compound 796]
≤ 2000 | Cc1cccc(C(=O)N2CCC3(CC2)Oc2ccccc2-c2c3cnn2C)c1C [Compound 797]
≤ 2000 | COc1ccc(F)cc1C(=O)N1CCC2(CC1)Oc1cc(Cl)ccc1-n1c(C#N)ccc12 [Compound 799]
≤ 2000 | COc1c(C)cc(C(=O)N2CCC3(CC2)Oc2ccccc2-c2c3cnn2C)cc1C [Compound 801]
≤ 2000 | CCCOc1ccc(C(=O)N2CCC3(CC2)Oc2cccnc2-n2cccc23)cc1C(F)(F)F [Compound 805]
≤ 2000 | CS(=O)(=O)c1ccc(C(=O)N2CCC3(CC2)Oc2cc(Cl)ccc2-n2cccc23)c(Cl)c1 [Compound 808]
≤ 2000 | CC(C)(CO)c1ccc(C(=O)N2CCC3(CC2)Oc2ccccc2-n2c(C#N)ccc23)cc1 [Compound 810]
≤ 2000 | CCCOc1ccc(C(=O)N2CCC3(CC2)Oc2cc(F)ccc2-n2cccc23)cc1OC [Compound 812]

IC50 [nM] | SMILES
≤ 2000 | O=C(c1ccc(C(O)C2CC2)cc1)N1CCC2(CC1)Oc1ccccc1-n1c(C(F)(F)F)ccc12 (stereo not drawn) [Compound 815]
≤ 2000 | COC(C)(C)c1ccc(C(=O)N2CCC3(CC2)Oc2ccccc2-n2cccc23)cc1C [Compound 817]
≤ 2000 | CCCOc1ccc(C(=O)N2CCC3(CC2)Oc2ccccc2-n2c(C)ccc23)cc1C(F)(F)F [Compound 818]
≤ 2000 | COc1ccc(C(=O)N2CCC3(CC2)Oc2ccccc2-n2c3ccc2S(C)(=O)=O)cc1C(F)(F)F [Compound 819]
≤ 2000 | COCCOc1ccc(C(=O)N2CCC3(CC2)Oc2ccccc2-n2c(C(C)=O)ccc23)cc1OC [Compound 820]
≤ 2000 | CCS(=O)(=O)c1ccc(C(=O)N2CCC3(CC2)Oc2ccccc2-c2c3cnn2C)cc1C [Compound 821]
≤ 2000 | COc1ccc2c(c1)-c1c(cnn1C)C1(CCN(C(=O)c3ccc(OC(C)C)c(C)c3)CC1)O2 [Compound 822]
≤ 2000 | Cn1cc2c(n1)-c1ccccc1OC21CCN(C(=O)c2ccc(S(=O)(=O)NC(C)(C)C)cc2)CC1 [Compound 824]
≤ 2000 | COc1ccc(C(=O)N2CCC3(CC2)Oc2ccccc2-n2c(C#N)ccc23)cc1C(F)(F)F [Compound 826]
≤ 2000 | Cn1ncc2c1-c1ccccc1OC21CCN(C(=O)c2ccc(OC3CCCC3)cc2)CC1 [Compound 828]
≤ 2000 | CC(C)Oc1ccc(C(=O)N2CCC3(CC2)Oc2ccccc2-c2nn(C)cc23)cn1 [Compound 830]
≤ 2000 | COc1cccc(C(=O)N2CCC3(CC2)Oc2ccccc2-c2c3cnn2C)c1OC [Compound 831]
≤ 2000 | CCc1ccccc1C(=O)N1CCC2(CC1)Oc1cc(Cl)ccc1-n1cccc12 [Compound 833]
≤ 2000 | Cc1nc(C(=O)N2CCC3(CC2)Oc2ccccc2-c2c3cnn2C)ccc1OC(C)C [Compound 834]
≤ 2000 | O=C(c1ccc(OCC2CCCO2)c(C(F)(F)F)c1)N1CCC2(CC1)Oc1ccccc1-n1cccc12 (stereo not drawn) [Compound 836]
≤ 2000 | COc1cc(C(=O)N2CCC3(CC2)Oc2ccccc2-n2cccc23)ccc1O[C@H]1CCOC1 [Compound 837]
≤ 2000 | CCc1ccc(C(=O)N2CCC3(CC2)Oc2ccccc2-n2c(C#N)ccc23)cc1OC [Compound 839]
